These results are taken from US12262725B2, “Improving taste profile of orange juice” (SYMRISE AG, priority 2015, dated 2025).

Common to all, as to format: in vivo
Experiment [1] is described as follows: Masking of typical bitter substances from citrus products; bitterness rated by a group of experts. The settings on record: for Assessment Bitter (0-10) With neoflavonoid: amount of neoflavonoid not given; for Relative masking (bitter): with vs without neoflavonoid. From the text:
Masking of Typical Bitter Substances from Citrus Products
For quantifying the reduction (i.e. the masking or the decrease) of the bitter impression in a sample, the bitterness of a solution containing the bitter substances named in the following Table 2 in column 1 were each compared with a sample, which contained the corresponding bitter substance and additionally the respectively specified amount of a neoflavonoid (column 2) by a group of experts (classification: 1 [not bitter] to 10 [extremely bitter]). For the analysis, i. e. the calculation of the reduction (in %) of the bitter impression, the respective average values of the assessments of the group of experts were used.

Experiment [2] in a line: Masking the perception of the acid and the bitterness in orange juice; panelists rate sweet, bitter and sour on a 0-10 scale. The settings on record: for Assessment (0-10) Bitter / Assessment (0-10) Sour / Assessment (0-10) Sweet: scale 0-10. From the text:
The panelists (n=6-8) thereby evaluate the 3 attributes “sweet”, “bitter” and “sour” on an unstructured scale of 0 (no taste) to 10 (strong taste). In one sample, the panelists receive the orange juice alone, in a further sample, they received the orange juice which was supplemented with an amount of neoflavonoids as listed in one of the tables. Thereby, the order is arbitrary and not known to the panelists before.
In the following Tables 1A to 1D, the results of the evaluations are summed up.

A short description of experiment [3]: Masking of the perception of the acid in citrus containing carbonated drinks; panelists rate sour on a 0-10 scale. The source says: Masking of the Perception of the Acid in Citrus Containing Carbonated Drinks
For quantifying the reduction (i. e. the masking or the decrease) of the perception of the acid in a sample, the panelists (n=6-8) assess the attribute “sour” on a non-structured scale from 0 (no taste)-10 (strong taste). The panelists receive in one sample the citrus/-lime soft drink reduced in sugar alone, in a further sample the soft drink, to which an amount of neoflavonoids specified in Table 3 has been added. Thereby, the order is arbitrary and not known to the panelists before. In the following Table, the results of the evaluations are summed up.

The mark [4] stands for this setting: HLB Hamlin orange juice, 15 ppm neoflavonoid vs juice alone.
[5] abbreviates: Orange juice comprising 7.8 ppm limonin, 10 ppm neoflavonoid vs juice alone.
The mark [6] stands for this setting: Orange juice comprising 7.8 ppm limonin, 10 ppm neoflavonoid, n=6-8.
Setting [7] is: Orange juice, oranges infected with HLB from early ripening Hamlin March 2014, 15 ppm neoflavonoid, n=6-8.
[8] abbreviates: Trial 1B, orange juice comprising 7 ppm limonin, 20 ppm neoflavonoid vs juice alone.
Setting [9] is: Trial 1B, orange juice comprising 7 ppm limonin, 20 ppm neoflavonoid.
Where [10] appears, read: Trial 1C, orange juice comprising 7 ppm limonin, 25 ppm neoflavonoid vs juice alone.
The mark [11] stands for this setting: Trial 1C, orange juice comprising 7 ppm limonin, 25 ppm neoflavonoid.
[12] abbreviates: Trial 1D, orange juice comprising 7 ppm limonin, 25 ppm neoflavonoid vs juice alone.
The mark [13] stands for this setting: Trial 1D, orange juice comprising 7 ppm limonin, 25 ppm neoflavonoid.

For `COc1cc(C2CC(=O)Oc3cc(O)cc(O)c32)ccc1O` (stereo not shown) [1:1 mixture from component 9 and 10, 5,7-dihydroxy-4-(4-hydroxy-3-methoxy-phenyl)chroman-2-on], in experiment [1] (solution of 10 ppm limonin), the “Assessment Bitter (0-10) With neoflavonoid” value (“Assessment Bitter” for short) is given as 2.5 and the “Relative masking (bitter)” value is −19%. Moreover, in experiment [1] (solution of 50 ppm poncirin), the “Assessment Bitter” value is 3.5 and the “Relative masking (bitter)” value is listed as −29%. Besides, in experiment [1] (solution of 75 ppm naringin), the “Assessment Bitter” value amounted to 2.9 and the “Relative masking (bitter)” value is recorded as −24%. Besides, in experiment [2] (setting [4]), the “Relative change Bitter” value is on record as −36%, the “Relative change Sour” value is −19% and the “Relative change Sweet” value is “+22%”. In experiment [2] (setting [5]), the “Relative change Bitter” value is −46%, the “Relative change Sour” value is reported as −35% and the “Relative change Sweet” value is listed as “+52%”. For the same compound, in experiment [2] (setting [6]), the “Assessment (0-10) Bitter” value was 2.5, the “Assessment (0-10) Sour” value was determined as 3.5 and the “Assessment (0-10) Sweet” value amounted to 6.0. For the same compound, in experiment [2] (setting [7]), the “Assessment (0-10) Bitter” value turned out to be 2.7, the “Assessment (0-10) Sour” value was 3.5 and the “Assessment (0-10) Sweet” value is reported as 3.8.

Regarding `O=C1CC(c2ccc(O)cc2)c2c(O)cc(O)cc2O1` (stereo not shown) [1:1 mixture from component 11 and 12, 5,7-dihydroxy-4-(4-hydroxyphenyl)-chroman-2-on], in experiment [1] (solution of 10 ppm limonin), the “Assessment Bitter” value is recorded as 2.8 and the “Relative masking (bitter)” value is given as −38%. In experiment [1] (solution of 50 ppm poncirin), the “Assessment Bitter” value was 3.6 and the “Relative masking (bitter)” value is on record as −8%. In experiment [1] (solution of 75 ppm naringin), the “Assessment Bitter” value amounted to 3.7 and the “Relative masking (bitter)” value is on record as −18%. In experiment [2] (setting [8]), the “Relative change Bitter” value is reported as −45%, the “Relative change Sour” value was −33% and the “Relative change Sweet” value is on record as “+13%”. For the same compound, in experiment [2] (setting [9]), the “Assessment (0-10) Bitter” value is 2.8, the “Assessment (0-10) Sour” value came to 3.1 and the “Assessment (0-10) Sweet” value came out at 4.8.

For the compound `O=C1CC(c2ccc(O)cc2)c2ccc(O)cc2O1` (stereo not shown) [1:1 mixture from component 29 and 30, 7-hydroxy-4-(4-hydroxy-phenyl)-chroman-2-on], in experiment [2] (setting [10]), the “Relative change Bitter” value is recorded as −45%, the “Relative change Sour” value is on record as −33% and the “Relative change Sweet” value is on record as “+13%”. Further, in experiment [2] (setting [11]), the “Assessment (0-10) Bitter” value was 2.4, the “Assessment (0-10) Sour” value is listed as 3.0 and the “Assessment (0-10) Sweet” value came out at 5.3.

For `COc1cc(C2CC(=O)Oc3cc(O)cc(OC)c32)ccc1O` (stereo not shown) [1:1 mixture from component 41 and 42, 7-hydroxy-4-(4-hydroxy-3-methoxy-phenyl)-5-methoxy-chroman-2-on], in experiment [1] (solution of 100 ppm naringin), the “Assessment Bitter” value is 3.7 and the “Relative masking (bitter)” value is given as −15%. In addition, the “Relative masking (sour)” value in experiment [3] (Carbonated soft drink (7° Brix, 0.2% citric acid), with vs without neoflavonoid, p < 0.1) is recorded as −17%. The “Assessment Sour (0-10) With neoflavonoid” value in experiment [3] (Carbonated soft drink (7° Brix, 0.2% citric acid, 0.0001% citrus oil, 0.0001% lime oil, 0.06% citrus aroma), n=6-8) was determined as 3.4. In experiment [2] (setting [12]), the “Relative change Bitter” value is recorded as −43%, the “Relative change Sour” value is given as −13% and the “Relative change Sweet” value is reported as “+43%”. Further, in experiment [2] (setting [13]), the “Assessment (0-10) Bitter” value is 2.7, the “Assessment (0-10) Sour” value is on record as 3.7 and the “Assessment (0-10) Sweet” value worked out at 5.9.
